The values that follow come from US20110092476A1, “Bicycloheteroaryl compounds as P2X7 modulators and uses thereof” (Renovis, Inc., priority 2006, published 2011).

Read-outs that look alike come from different tables or passages of the source.

The test concerns the target T1, P2X7 receptor (Homo sapiens, UniProt Q99572).
T1 construct: host or cells: THP-1 cells differentiated with LPS and IFN-γ
T1 sequence (Q99572 1-595): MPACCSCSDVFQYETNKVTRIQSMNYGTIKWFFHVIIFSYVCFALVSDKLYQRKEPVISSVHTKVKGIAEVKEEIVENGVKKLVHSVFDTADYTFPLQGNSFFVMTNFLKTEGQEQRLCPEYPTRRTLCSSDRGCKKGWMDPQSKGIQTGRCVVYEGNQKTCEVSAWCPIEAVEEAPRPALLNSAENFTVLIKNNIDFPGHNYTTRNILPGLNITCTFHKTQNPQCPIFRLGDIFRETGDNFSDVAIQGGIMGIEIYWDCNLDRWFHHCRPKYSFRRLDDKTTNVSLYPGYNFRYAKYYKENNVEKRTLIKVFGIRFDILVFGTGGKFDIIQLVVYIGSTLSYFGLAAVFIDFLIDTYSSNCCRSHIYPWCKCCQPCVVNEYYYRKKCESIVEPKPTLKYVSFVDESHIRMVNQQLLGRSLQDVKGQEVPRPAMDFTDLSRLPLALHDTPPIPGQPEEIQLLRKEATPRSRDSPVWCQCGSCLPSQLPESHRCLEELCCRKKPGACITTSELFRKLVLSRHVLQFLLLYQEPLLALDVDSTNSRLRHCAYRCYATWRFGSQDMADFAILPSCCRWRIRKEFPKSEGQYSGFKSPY
The test is described as follows: IL-1β release assay in differentiated THP-1 cells stimulated with BzATP (Example 9). The test is classed as cell-based. The conditions noted are these: for IC50: THP-1 cells, IL-1β by ELISA. A digest of the protocol: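 IC50 derived by four-parameter logistic fit of percent inhibition of IL-1β release (ELISA, background-adjusted). Release triggered by 45 min BzATP at 250 uM final after 30 min compound pretreatment of THP-1 cells previously differentiated 16 h (LPS, IFN-γ, 100 ng/mL each) and re-primed 2 h with LPS.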
Background: In an ELISA, binding on a coated surface is turned into a signal by an enzyme label.

Where [1] appears, read: 0.1 μM compound, differentiated THP-1 cells, BzATP 250 uM, "*" symbols, read-out: IL-1β % Inhib. @ 0.3 or 0.1 uM.
[2] abbreviates: 0.1 μM compound (symbols *), differentiated THP-1 cells, BzATP 250 uM, read-out: IL-1β % Inhib. @ 0.3 or 0.1 uM.
Where [3] appears, read: 0.3 μM compound (symbols +), differentiated THP-1 cells, BzATP 250 uM, read-out: IL-1β % Inhib. @ 0.3 or 0.1 uM.
[4] abbreviates: 0.3 μM compound, differentiated THP-1 cells, BzATP 250 uM, "+" symbols, read-out: IL-1β % Inhib. @ 0.3 or 0.1 uM.

As for `CCOc1ccc(CC(=O)Nc2cccc3c(=O)n(CC(C)(C)O)ccc23)cc1` [Compound 215], under setting [1], the inhibition at 0.1 µM is 26 to 50%.
For `COc1ccc(C(=O)Nc2cccc3c(=O)n(CC4(O)CCCCC4)ccc23)c(C)c1` [Compound 83], the inhibition at 0.1 µM under setting [2] lay in the range of 0 to 25%.
`COc1ccc(CCC(=O)Nc2cccc3c(=O)n(CC4(O)CCCCC4)ccc23)cc1` [Compound 25]: under setting [3], the inhibition at 0.3 µM was in the range of 0 to 25%.
For `CCOc1cccc(C(=O)Nc2cccc3c(=O)n(C(C)CO)ccc23)c1` (stereo not drawn) [Compound 93], under setting [2], the inhibition at 0.1 µM is 0 to 25%.
Still for that read-out and setting: to `COc1ccc(CC(=O)Nc2cccc3c(=O)n(CC(C)O)ccc23)cc1` (stereo not drawn) [Compound 160] belongs 0 to 25%; to `Cc1ccc(C)c(CC(=O)Nc2cccc3c(=O)n(CC(C)O)ccc23)c1` (stereo not drawn) [Compound 130], 26 to 50%.
As to `CNCCn1ccc2c(NC(=O)Cc3ccc(Cl)c(C(F)(F)F)c3)cccc2c1=O` [Compound 235, 2-(4-Chloro-3-trifluoromethyl-phenyl)-N-[2-(2-methylamino-ethyl)-1-oxo-1,2-dihydro-isoquinolin-5-yl]-acetamide], under setting [4], the inhibition at 0.3 µM was over 76%.
Turning to `COc1ccccc1CCC(=O)Nc1cccc2c(=O)n(C(C)CO)ccc12` (stereo not drawn) [Compound 104], under setting [2], the inhibition at 0.1 µM lay within 0 to 25%.
`C[C@H](CO)n1ccc2c(NC(=O)Cc3ccc(C(F)(F)F)c(F)c3)c(C3CC3)ccc2c1=O` [Compound 384, N-[6-Cyclopropyl-2-((R)-2-hydroxy-1-methyl-ethyl)-1-oxo-1,2-dihydro-isoquinolin-5-yl]-2-(3-fluoro-4-trifluoromethyl-phenyl)-acetamide]: under setting [4], the inhibition at 0.3 µM is over 76%.
The same measure, in the same setting: to `CNC(=O)[C@@H](CO)n1ccc2c(NC(=O)C(C)c3ccc(Cl)cc3)cccc2c1=O` (stereo partly drawn) [Compound 261] belongs 51 to 75%; to `C[C@H](CO)n1ccc2c(NC(=O)Cc3ccc(C(F)(F)F)cc3F)c(Cl)ccc2c1=O` [Compound 378], over 76%.
As to `Cc1ccc(CC(=O)Nc2cccc3c(=O)n(CC(C)(C)O)ccc23)cc1` [Compound 216], the inhibition at 0.1 µM under setting [1] fell in the range of 0 to 25%.
Turning to `CC(=O)NCCn1ccc2c(NC(=O)Cc3ccc(F)c(F)c3)cccc2c1=O` [Compound 392], the inhibition at 0.3 µM under setting [4] is over 76%. This compound also gave an IC50 (BzATP 250 uM) of 0.74 nM.
On to `CCOc1ccc(CC(=O)Nc2cccc3c(=O)n(CC(C)O)ccc23)cc1` (stereo not drawn) [Compound 161], for which, under setting [2], the inhibition at 0.1 µM fell in the range of 0 to 25%.
On the same count and under the same terms, under `CC(C(=O)Nc1cccc2c(=O)n(C(C)CO)ccc12)c1ccccc1` (stereo not drawn) [Compound 103] stands 0 to 25%.
With `C[C@H](C(N)=O)n1ccc2c(NC(=O)Cc3ccc(F)cc3F)cccc2c1=O` [Compound 293], the inhibition at 0.3 µM under setting [4] was over 76%.
Regarding `Cc1c(Cl)cccc1C(=O)Nc1cccc2c(=O)n(CC(C)O)ccc12` (stereo not drawn) [Compound 172], the inhibition at 0.1 µM under setting [2] lay in the range of 51 to 75%.
Consider `Cc1cccc(CCC(=O)Nc2cccc3c(=O)n(CC4(O)CCCCC4)ccc23)c1` [Compound 53], for which, under setting [3], the inhibition at 0.3 µM lay within 0 to 25%.
Take `Cc1cccc(CC(=O)Nc2cccc3c(=O)n(CC(C)(C)O)ccc23)c1` [Compound 213]: under setting [1], the inhibition at 0.1 µM lay in the range of 0 to 25%.
In the case of `C[C@@H](C(N)=O)n1ccc2c(NC(=O)Cc3ccc(C(F)(F)F)c(F)c3)cccc2c1=O` [Compound 347], the inhibition at 0.3 µM under setting [4] is over 76%.
Same read-out and setting: to `C[C@H](C(N)=O)n1ccc2c(NC(=O)Cc3ccc(Cl)cc3C(F)(F)F)cccc2c1=O` [Compound 241] belongs over 76%; to `CC(C)(CO)n1ccc2c(NC(=O)Cc3cccc(C(F)(F)F)c3F)cccc2c1=O` [Compound 368], over 76%.
Regarding `Cc1cc(C(=O)Nc2cccc3c(=O)n(CC4(O)CCCCC4)ccc23)ccc1Cl` [Compound 17], the inhibition at 0.3 µM under setting [3] was in the range of 0 to 25%.
`C[C@@H](C(N)=O)n1ccc2c(NC(=O)Cc3ccc(C(F)(F)F)cc3)c(Cl)ccc2c1=O` [Compound 345, (S)-2-{6-Chloro-1-oxo-5-[2-(4-trifluoromethyl-phenyl)-acetylamino]-1H-isoquinolin-2-yl}-propionamide]: the inhibition at 0.3 µM (THP-1, read-out: IL-1β % Inhib. @ 0.3 or 0.1 uM) is over 76%.
Consider `O=C(CCc1cccc(Cl)c1)Nc1cccc2c(=O)n(CC3(O)CCCCC3)ccc12` [Compound 58], for which the inhibition at 0.3 µM under setting [3] was in the range of 26 to 50%.
Turning to `COc1ccc(OC)c(CC(=O)Nc2cccc3c(=O)n(CC(C)(C)O)ccc23)c1` [Compound 210], the inhibition at 0.1 µM under setting [1] was in the range of 0 to 25%.
With `C[C@@H](CO)n1ccc2c(NC(=O)Cc3ccc(Cl)c(Cl)c3)cccc2c1=O` [Compound 332], the inhibition at 0.3 µM under setting [4] was over 76%.
Consider `Cc1ccc(Cl)c(C(=O)Nc2cccc3c(=O)n(C(C)CO)ccc23)c1` (stereo not drawn) [Compound 121], for which the inhibition at 0.1 µM under setting [2] was in the range of 0 to 25%.
Turning to `O=C(Cc1cc(Cl)ccc1C(F)(F)F)Nc1cccc2c(=O)n(CCO)ccc12` [Compound 68], the inhibition at 0.3 µM under setting [3] was in the range of 26 to 50%.
With `CC(CO)n1ccc2c(NC(=O)CCc3ccc4c(c3)OCO4)cccc2c1=O` (stereo not drawn) [Compound 94], under setting [2], the inhibition at 0.1 µM was in the range of 0 to 25%.
Regarding `Cc1ccc2c(=O)n(CCO)ccc2c1NC(=O)Cc1cccc(C(F)(F)F)c1F` [Compound 396], the inhibition at 0.3 µM under setting [4] is over 76%. The same compound returned an IC50 (BzATP 250 uM) of 10.7 nM.
Consider `NC(=O)[C@H](CO)n1ccc2c(NC(=O)Cc3ccc(Cl)c(Cl)c3)cccc2c1=O` [Compound 253], for which, under setting [4], the inhibition at 0.3 µM lay in the range of 26 to 50%.
In the case of `Cc1c(Cl)cccc1C(=O)Nc1cccc2c(=O)n(CC(C)(C)O)ccc12` [Compound 225], the inhibition at 0.1 µM under setting [1] was 0 to 25%.
As for `O=C(Cc1cccc2ccccc12)Nc1cccc2c(=O)n(CC3(O)CCCCC3)ccc12` [Compound 26], the inhibition at 0.3 µM under setting [3] is 0 to 25%.
On to `CC(C)(O)Cn1ccc2c(NC(=O)CCc3ccccc3Cl)cccc2c1=O` [Compound 194], for which the inhibition at 0.1 µM under setting [2] was in the range of 0 to 25%.
`COc1ccc(C(=O)Nc2cccc3c(=O)n(CC4(O)CCCCC4)ccc23)c(C)c1` [Compound 56]: under setting [3], the inhibition at 0.3 µM fell in the range of 0 to 25%.
With `CC(C(=O)Nc1cccc2c(=O)n([C@@H](C)C(N)=O)ccc12)c1ccc(Cl)cc1` (stereo partly drawn) [Compound 240], the inhibition at 0.3 µM under setting [4] is over 76%.
Still for that read-out and setting: under `CC(C)(CO)n1ccc2c(NC(=O)Cc3ccc(F)c(Cl)c3)cccc2c1=O` [Compound 372] stands 0 to 25%.
As to `Cc1ccc(C(=O)Nc2cccc3c(=O)n(CC(C)(C)O)ccc23)c(C)c1` [Compound 201], the inhibition at 0.1 µM under setting [1] was 0 to 25%.
As for `C[C@H](C(N)=O)n1ccc2c(NC(=O)Cc3ccccc3F)cccc2c1=O` [Compound 294], under setting [4], the inhibition at 0.3 µM lay in the range of 26 to 50%.
Regarding `C[C@H](C(N)=O)n1ccc2c(NC(=O)Cc3ccc(F)cc3Cl)cccc2c1=O` [Compound 291], under setting [4], the inhibition at 0.3 µM was over 76%.
In the case of `Cc1cccc(CCC(=O)Nc2cccc3c(=O)n(CC(C)O)ccc23)c1` (stereo not drawn) [Compound 180], the inhibition at 0.1 µM under setting [2] is 0 to 25%.
Turning to `Cc1cc(C(=O)Nc2cccc3c(=O)n(CC(C)O)ccc23)ccc1Cl` (stereo not drawn) [Compound 135], the inhibition at 0.1 µM under setting [2] lay within 0 to 25%.
Still for that read-out and setting: to `Cc1cc(C)cc(CC(=O)Nc2cccc3c(=O)n(C(C)CO)ccc23)c1` (stereo not drawn) [Compound 119] belongs 0 to 25%.
Turning to `CC(C(=O)Nc1cccc2c(=O)n([C@@H](C)C(N)=O)ccc12)c1ccc(Cl)c(C(F)(F)F)c1` (stereo partly drawn) [Compound 356], the inhibition at 0.3 µM under setting [4] is over 76%.
As to `COc1ccc(CCC(=O)Nc2cccc3c(=O)n(C(C)CO)ccc23)cc1` (stereo not drawn) [Compound 105], the inhibition at 0.1 µM under setting [2] lay within 0 to 25%.

Usually IC50 stands for the point on the concentration scale where inhibition reaches its midpoint. A low value points to higher potency.
